From patent US8936941B2, “Compositions useful for cancer detection and treatment, a cancer stem cell model, and methods of production and use thereof” (priority 2008, dated 2015) come the findings set out here.

This data set deals with DCAMKL-1. Kind of data set: siRNA knockdown of DCAMKL-1 in SW480 cells, real-time RT-PCR and Western blot. In kind it is cell-based, human. Here is the method: Cell culture. HCT116, HCT116 p21^−/− and SW480 human colon adenocarcinoma cell lines were obtained from the American Type Culture Collection (ATCC) and grown in Dulbecco's modified eagle's medium (DMEM) supplemented with 10% fetal bovine serum and 100 U/mL penicillin-streptomycin in a humidified chamber at 37° C. with 5% CO2.
Silencer RNA. DCAMKL-1 siRNA (si-DCAMKL-1) sequence targeting the coding region of DCAMKL-1 (Accession # NM_004734 (SEQ ID NO:1)) ([…] (SEQ ID NO:3)) and scrambled control siRNAs (si-Scr) not matching any of the human genes were obtained (Ambion Inc., Austin, Tex.) and transfected using Transfectol™ (Ambion Inc.).
Real-time reverse transcription-PCR analyses. Total RNA isolated either from cells or from human colon cancer cell tumor xenograft samples was subjected to reverse transcription with Superscript™ II RNase H—Reverse Transcriptase and random hexanucleotide primers (Invitrogen, Carlsbad, Calif.). The cDNA was subsequently used to perform Real-time PCR by SYBR chemistry (SYBR® Green I; Molecular Probes) for specific transcripts using gene specific primers and Jumpstart Taq DNA polymerase (Sigma-Aldrich, St. Louis, Mo.). […] The changes in mRNA were expressed as fold change relative to control with ±SEM value.
miRNA analysis. Total miRNA was isolated using mirVana™ miRNA isolation kit (Ambion Inc.). Total miRNA isolated either from cells or from human colon cancer cell tumor xenograft samples were subjected to reverse transcription with Superscript™ II RNase H—Reverse Transcriptase and random hexanucleotide primers (Invitrogen, Carlsbad, Calif.). The cDNA was subsequently used to perform Real-time PCR by SYBR chemistry (SYBR® Green I; Molecular Probes) for pri-let-7a transcript using specific primers and Jumpstart Taq DNA polymerase (Sigma-Aldrich, St. Louis, Mo.). […] The changes in pri-miRNA were expressed as fold change relative to control with ±SEM value. Primers used are: […]
Western Blot analysis. HCT116 and SW480 cells were cultured in a 6 well plates to 40% confluency and were transfected with si-DCAMKL-1 or si-Scr for 72 h. Cells or the tumor xenograft samples were lysed and the concentration of protein was determined by BCA protein assay kit (Pierce Biotechnology Inc., Rockford, Ill.). Forty μg of the protein was size separated in a 7.5-15% SDS polyacrylamide gel and transferred onto a nitrocellulose membrane with a semidry transfer apparatus (Amersham-Pharmacia, Piscataway, N.J.). The membrane was blocked in 5% non-fat dry milk for 1 h and probed overnight with a rabbit anti-DCAMKL-1 antibody (Abcam Inc., Cambridge, Mass.) or with rabbit anti-c-Myc antibody (Santa Cruz). Subsequently, the membrane was incubated with anti-rabbit or anti-goat IgG horseradish peroxidase-conjugated antibodies (Amersham-Pharmacia) for 1 h at room temperature. The 82 kDa DCAMKL-1 and 49 kDa c-Myc proteins were detected using ECL™ Western Blotting detection reagents (Amersham-Pharmacia). Actin (43 kDa), used as loading control was identified using a goat polyclonal IgG (Santa Cruz Biotechnology Inc., Santa Cruz, Calif.).
For orientation: Quantitative PCR measures a nucleic acid by following its amplification.

Where [1] appears, read: real-time RT-PCR, compared to controls.

A value given as a limit tells only on which side of the number the result lay.

Sequence of DCAMKL-1 (O15075 other isoform, or with tags, fused parts or gaps): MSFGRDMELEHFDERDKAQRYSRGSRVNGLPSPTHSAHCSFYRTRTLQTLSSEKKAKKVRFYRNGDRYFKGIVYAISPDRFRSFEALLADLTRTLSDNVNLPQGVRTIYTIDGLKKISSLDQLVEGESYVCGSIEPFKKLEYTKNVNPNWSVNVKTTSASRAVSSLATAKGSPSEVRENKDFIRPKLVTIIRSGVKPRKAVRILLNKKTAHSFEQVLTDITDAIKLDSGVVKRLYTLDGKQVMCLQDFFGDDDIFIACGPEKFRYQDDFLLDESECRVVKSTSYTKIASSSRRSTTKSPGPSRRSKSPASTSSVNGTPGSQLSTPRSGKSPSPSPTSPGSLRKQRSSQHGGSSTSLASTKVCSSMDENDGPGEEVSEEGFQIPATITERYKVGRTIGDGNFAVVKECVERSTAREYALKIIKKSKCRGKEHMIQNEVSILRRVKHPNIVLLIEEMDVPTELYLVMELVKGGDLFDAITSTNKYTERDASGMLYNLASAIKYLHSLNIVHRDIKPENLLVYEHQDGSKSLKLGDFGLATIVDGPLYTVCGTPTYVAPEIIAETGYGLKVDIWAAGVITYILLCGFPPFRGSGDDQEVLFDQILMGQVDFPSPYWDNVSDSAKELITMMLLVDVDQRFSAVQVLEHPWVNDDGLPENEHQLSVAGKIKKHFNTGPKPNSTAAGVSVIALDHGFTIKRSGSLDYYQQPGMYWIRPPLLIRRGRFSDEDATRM

As to “si-DCAMKL-1: siRNA targeting the coding region of DCAMKL-1 (NM_004734), sequence GGGAGUGAGAACAAUCUAC (SEQ ID NO:3) (chemistry not given here; listed as Homo sapiens)”, the “c-Myc mRNA and protein” value was “Reduction”; the “reduction in Notch-1 mRNA” value is on record as greater than 50%. In addition, the “Notch-1 and cleaved Notch-1 protein” value (Western blot) was “dose dependent reduction”. In addition, the DCAMKL-1 protein entry (Western blot, 72 h transfection) is “reduction”. The “reduction in DCAMKL-1 mRNA expression” value (real-time RT-PCR) is reported as greater than 70%. Further, under setting [1], the “increase in pri-let-7a miRNA” value is listed as 4 fold and the “increase in pri-miR-144 miRNA” value was found to be 3 fold.
